Data taken from patent US4692463A, “Antiinflammatory 2,3-didemethylcolchicine and additional derivatives” (The United States of America as represented by the …, priority 1985, dated 1987).

How the values were obtained:
[1] = system: swelling produced by injecting carrageenin into the footpad; assay: animal or person; assay type: in vivo, mice or rats; details: for Reduction of Swelling 3 hrs / Reduction of Swelling 5 hrs: dose 2 mg/kg i.p.; for Reduction of Swelling 3 hrs: 3 hours after; for Reduction of Swelling 5 hrs: 5 hours after; for minimal effective dose: Mus musculus, ip, classical drugs, carrageenin swelling screen, read-out: Dose level at which active (antiinflammatory)
Excerpt: The antiinflammatory properties of colchinoids can be evaluated in a classical screening that measures the reduction of swelling produced by injecting (i.p.) carrageenin into the footpad of mice or rats and drug treatment. The drugs can be given orally or intraperitoneally.
Drug given in carrageenine or thyrode solution by i.p.

[2] = Toxicity measured in the P388 screen (weight loss in mice); assay type: in vivo; details: for Toxicity: dose which caused average weight loss in mice of 3 g or more: P388 screen
Excerpt: ^1 Measured in the P388 screen and defined as dose which caused
average weight loss in mice of 3 g or more.

tubulin protein = assay type: binding; details: in vitro

SMILES	Reduction of Swelling 3 hrs [1]	Reduction of Swelling 5 hrs [1]	Toxicity: dose which caused average weight loss in mice of 3 g or more [2]	minimal effective dose [1] [mg/kg]	Toxicity in comparison to colchicine (in words) ([2]; experimental animals)	Binding to tubulin protein in comparison to colchicine (in words) (tubulin protein)
COc1cc2c(c(OC)c1OC)-c1ccc(OC)c(=O)cc1[C@@H](NC(C)=O)CC2 [Colchicine]	44	45	2.5			
CCCCC1C(=O)N(c2ccccc2)N(c2ccccc2)C1=O [phenybutazone, reference compound]				≥ 100		
COc1ccc2c(c1)c(CC(=O)O)c(C)n2C(=O)c1ccc(Cl)cc1 [indomethacine, reference compound]				≥ 100		
COc1c(O)c(O)cc2c1-c1ccc(OC)c(=O)cc1[C@@H](NC(C)=O)CC2 [2,3-Didemethylcolchicine]	70	60	54		much less toxic	bind less
COc1c2c(cc3c1-c1ccc(OC)c(=O)cc1[C@@H](NC(C)=O)CC3)OCO2 [Cornigerine, 2,3-(Methylenedioxy)-2,3-didemethoxycolchicine]	44	47	39			
